# Test results reported in paper PMC12456999, “Sulfonyl Homoserine Lactones Are Tunable Probes to Inhibit the Quorum Sensing Receptor RhlR and Reduce Swarming Motility in Pseudomonas aeruginosa” (ACS Infectious Diseases, 2025).
# Where two headings read alike, the source gives them in different places. Marks after values point to notes of the source that are not given here.
# What was measured:
# [1] = target: T1, RhlR (Pseudomonas aeruginosa, UniProt P54292); test: E. coli (JLD271) RhlR reporter antagonism assay, in competition with BHL; format: cell-based; conditions: for max. RhlR inhibition (%): BHL at 10 μM set to 0%, media control set to 100%; for potency gain: 33 vs 16, 43 vs 24, 86 vs 45
# T1 construct: expressed in transfected cells; host or cells: E. coli JLD271 (K-12 ΔlacX74 sdiA271::Cam) carrying pJN105-R2 (RhlR expression) and pSC11-rhlI (rhlI'-lacZ reporter)
# Method: To start, the sulfonyl HLs were evaluated for their ability to antagonize RhlR using a previously described E. coli strain (JLD271) harboring a RhlR expression plasmid and a rhlI reporter plasmid. This E. coli reporter produces RhlR, and protein activity in the presence of an added small molecule can be measured via the production of β-galactosidase as quantified via luminescence (see Methods). Compounds were screened in competition against RhlR’s native ligand, BHL (at its EC50 value in this strain, 10 μM), over a range of concentrations to generate antagonism dose–response curves (see Supporting Information) and calculate IC50 values (listed in Table ). A small set of compounds was also screened for RhlR agonism in the E. coli reporter; the agonism assay format was identical to the antagonism assay, except no BHL was added.
# RhlR activity in E. coli strain JLD271 (ΔsdiA) was measured via a β-galactosidase reporter (rhI-lacZ) using the Promega Beta-Glo Assay System as previously described. RhlR activity in P. aeruginosa PA14 (ΔrhlIΔlasI) was measured via a GFP reporter (rhlA-gfp). […] See Supporting Information for both reporter protocols.
# Supporting Information — Aguirre-Figueroa et al.
# E. coli and P. aeruginosa RhlR reporter assay protocols.
# E. coli RhlR reporter assay. RhlR activity in E. coli strain JLD271 (ΔsdiA) was measured via a β-galactosidase reporter using the Promega Beta-Glo® Assay System as previously described.10 A schematic of the reporter plasmids and assay protocol is shown in Scheme S1. Briefly, a single colony of E. coli JLD271 harboring the RhlR expression plasmid pJN105-R and the rhlI-lacZ transcriptional fusion reporter pSC11-R (Table S1) was grown in LB medium with 100 μg/mL ampicillin and 10 μg/mL gentamicin overnight (~16 h). The culture was diluted 1:10 in fresh LB medium and grown to an OD600 = 0.25 (0.23–0.28) (~0.5 h). Arabinose was added to a final concentration of 4 mg/mL to induce the expression of pJN105-R. Aliquots (2 μL) of compound DMSO stock solution or serial dilution were added to the inner wells (i.e., non-periphery rows) of a 96-well microtiter plate. To six inner wells, DMSO alone (vehicle) was added as a negative control. For agonism assays, BHL was added to six inner wells as a positive control (to achieve 1 mM). For antagonism assays, BHL was added to six inner wells as a positive control and to all of the other sample wells except for the vehicle control wells (to achieve 10 μM ). Subculture (198 μL) was then dispensed into each inner well. To the outer (periphery) wells, 200 μL of water were added to maintain humidity during incubation. Plates were then incubated for 4 h (shaking) at 37 °C.
# Scheme S1. Schematic of E. coli reporter plasmids and assay. (A) Representation of plasmids used in the heterologous reporter system. (B) General reporter assay workflow. BioRender used in […]
# After the incubation period, the OD600 of each well was measured using a plate reader. Cell dilution plates were prepared by transferring 10 μL from the incubated culture plate wells to a fresh 96-well plate and adding 90 μL of 18 MΩ water to each well. Next, 10 μL aliquots of diluted Beta-Glo® reagent (1:2 with 18 MΩ water) were added to each well of a white 384-well microtiter plate, followed by 10 μL of culture from each well of the dilution plate. The 384-well plate was incubated (without shaking; i.e., static) for 30 min at 30 °C. After incubation, luminescence of each well was measured using a plate reader. To determine levels of RhlR activity, raw luminescence was divided by OD600 to correct for growth variation and then normalized to the negative (0%) and positive (100%) control wells.
# Dose-response reporter assay data for compounds in the E. coli RhlR reporter.
# Dose-response curves for RhlR antagonism by compounds against 10 μM BHL using the E. coli JLD271 RhlR reporter are provided below. Compound names are indicated on the x-axis of each plot.
# All assays performed in triplicate as at least three separate biological replicates. […]
# [2] = system: bacterial growth; test: Effect on bacterial growth (OD600 over time); format: cell-based; conditions: at >2 mM concentrations
# Method: All new compounds were fully characterized for purity and identity (see Supporting Information). […] The remaining compounds had no effect on growth over the concentration range tested. All compounds were tested in bacteriological assays in triplicate and in at least three separate trials using unique cultures. IC50 and EC50 values in reporter assays were calculated using GraphPad Prism software (version 9.0) with a variable slope sigmoidal curve fit.
# [3] = IC50, E. coli JLD271 RhlR reporter, against 10 μM BHL
# [4] = E. coli JLD271 RhlR reporter, against 10 μM BHL
# [5] = read-out: inhibitory potency on average (74, 75 and 18), average over the C4, C5 and C6 ASHLs, E. coli RhlR reporter
# T1 sequence (P54292 whole entry): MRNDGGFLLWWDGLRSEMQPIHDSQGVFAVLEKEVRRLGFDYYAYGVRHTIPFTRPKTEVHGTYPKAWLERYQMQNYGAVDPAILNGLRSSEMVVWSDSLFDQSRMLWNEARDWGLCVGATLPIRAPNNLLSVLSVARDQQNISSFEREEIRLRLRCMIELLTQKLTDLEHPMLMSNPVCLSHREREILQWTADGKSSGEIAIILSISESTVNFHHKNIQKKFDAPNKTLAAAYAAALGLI
Structure (SMILES),max. RhlR inhibition (%) ([1]; E. coli RhlR reporter),"IC50 [1, 3] [µM]",also measured
"Cc1ccc(CC(=O)N[C@H]2CCOC2=O)cc1 [Compound C19, 4-Me PHL, reference compound]",89%,5.46,–
"O=C1OCC[C@@H]1NS(=O)(=O)Cc1ccc(F)cc1 [Compound 22, 4-F BnSHL]",94%,205,fold more potent in RhlR than 13 or 16 ([1]; E. coli RhlR reporter IC50): approximately 3 fold
"O=C1OCC[C@@H]1NS(=O)(=O)c1cccc(Cl)c1 [Compound 28, 3-chloro-BSHL]",97%,143,fold more potent than 26 and 27 ([1]; E. coli RhlR reporter IC50): 3 fold
CCCCS(=O)(=O)N[C@H]1CCOC1=O [Compound 74],70%,–,"IC50 [1, 4]: 35.2 µM; IC50 [1, 5]: ~28 µM"
Cc1cccc(S(=O)(=O)N[C@H]2CCOC2=O)c1 [Compound 93],95%,127,–
"O=C1OCC[C@@H]1NS(=O)(=O)c1cc(Cl)ccc1Cl [Compound 90, 2,5-di-Cl BSHL]",92%,1100,–
O=C1OCC[C@@H]1NS(=O)(=O)c1ccc(Cl)c(C(F)(F)F)c1 [Compound 60],90%,93.1,–
"O=C1OCC[C@@H]1NS(=O)(=O)c1ccc(F)c(Cl)c1 [Compound 64, 3-Cl, 4-F BSHL]",90%,31.3,"fold higher potency relative to 3,4-di-Cl BSHL (43) ([1]; E. coli RhlR reporter IC50): 2 fold; effect on bacterial growth [2]: modest effect on bacterial growth"
"O=C1OCC[C@@H]1NS(=O)(=O)Cc1ccc(Cl)cc1 [Compound 21, 4-Cl BnSHL]",99%,219,fold more potent in RhlR than 13 or 16 ([1]; E. coli RhlR reporter IC50): approximately 3 fold
"O=C1OCC[C@@H]1NS(=O)(=O)Cc1ccc([N+](=O)[O-])cc1 [Compound 16, 4-NO2 BnSHL]",97%,1290,–
"O=C1OCC[C@@H]1NS(=O)(=O)c1cc(F)c(F)c(F)c1 [Compound 86, 3,4,5-F BSHL]",80%,24.5,"potency gain ([1]; E. coli RhlR reporter IC50): ≤ 40 fold; fold higher potency relative to 3,4-di-Cl BSHL (43) ([1]; E. coli RhlR reporter IC50): over 2 fold"
O=C1OCC[C@@H]1NS(=O)(=O)c1ccc(F)c(C(F)(F)F)c1 [Compound 76],84%,69.4,–
"O=C1OCC[C@@H]1NS(=O)(=O)c1cccc(F)c1 [Compound 88, 3-fluoro BSHL]",92%,120,–
O=C1OCC[C@@H]1NS(=O)(=O)c1ccc(Cl)cc1 [Compound 26],96%,452,effect on bacterial growth [2]: modest effect on bacterial growth
"O=C1OCC[C@H]1NS(=O)(=O)c1ccc(Cl)c(Cl)c1 [Compound 55, 3,4-di-Cl BSHL]",99%,195,–
"Cc1ccc(CS(=O)(=O)N[C@H]2CCOC2=O)cc1 [Compound 13, 4-Me BnSHL]",90%,918,"fold less potent than parent 4-Me PHL ([1]; E. coli RhlR reporter IC50, comparator printed as 19): ~170 fold"
"O=C1OCC[C@@H]1NS(=O)(=O)c1ccc(Cl)cc1Cl [Compound 24, 2,4-di-Cl-BSHL]",99%,1590,–
"O=C1OCC[C@@H]1NS(=O)(=O)c1cc(Cl)c(F)c(Cl)c1 [Compound 87, 3,5-Cl-4F BSHL]",85%,68,"fold higher potency relative to 3,4-di-Cl BSHL (43) ([1]; E. coli RhlR reporter IC50): no change in potency"

Structure (SMILES),max. RhlR inhibition (%) ([1]; E. coli RhlR reporter),"IC50 [1, 3] [µM]",also measured
"O=C1OCC[C@@H]1NS(=O)(=O)c1ccccc1F [Compound 92, 2-fluoro-BSHL]",91%,863,–
"O=C1OCC[C@@H]1NS(=O)(=O)c1ccc(Br)cc1 [Compound 35, 4-bromo BSHL]",99%,166,effect on bacterial growth [2]: modest effect on bacterial growth
COc1cccc(S(=O)(=O)N[C@H]2CCOC2=O)c1 [Compound 48],88%,210,–
"CCCS(=O)(=O)N[C@H]1CCOC1=O [Compound 72, C3-AHSL]",45 ^f %,–,activity profile in RhlR ([1]; E. coli RhlR reporter dose-response curves): weak partial agonist
O=C1OCC[C@@H]1NS(=O)(=O)c1ccc(C(F)(F)F)cc1 [Compound 37],99%,333,–
"O=C1OCC[C@@H]1NS(=O)(=O)Cc1ccc(Cl)c(Cl)c1 [Compound 44, 3,4-di-Cl BnSHL]",82%,205,–
"O=C1OCC[C@@H]1NS(=O)(=O)c1ccccc1Cl [Compound 27, 2-chloro BSHL]",93%,545,effect on bacterial growth [2]: modest effect on bacterial growth
"O=C1OCC[C@@H]1NS(=O)(=O)c1c(Cl)cccc1Cl [Compound 89, 2,6-di-Cl-BSHL]",86%,> 1000,–
CCCCCCS(=O)(=O)N[C@H]1CCOC1=O [Compound 18],77%,–,"IC50 [1, 4]: 36.4 µM; IC50 [1, 5]: ~28 µM"
"O=C1OCC[C@@H]1NS(=O)(=O)c1cccc(Cl)c1Cl [Compound 42, 2,3-di-Cl BSHL]",95%,67.8,fold lower IC50 value than 3-Cl BSHL (28) ([1]; E. coli RhlR reporter IC50): over 2 fold
"O=C1OCC[C@@H]1NS(=O)(=O)c1ccc(Br)c(Cl)c1 [Compound 73, 3-Cl, 4-Br BSHL]",98%,118,fold less potent than 43 ([1]; E. coli RhlR reporter IC50): over 2 fold
"O=C1OCC[C@@H]1NS(=O)(=O)c1ccc(Cl)c(Cl)c1Cl [Compound 45, 2,3,4-tri-Cl BSHL]",80%,1030,"reduction of potency relative to 3,4-Cl BSHL (43) ([1]; E. coli RhlR reporter IC50): at least 2 orders of magnitude"
"O=C1OCC[C@@H]1NS(=O)(=O)c1ccc(F)c([N+](=O)[O-])c1 [Compound 71, 3-NO2,4-F BSHL]",62%,257,–
"O=C(Cc1ccc(C(F)(F)F)cc1)N[C@H]1CCOC1=O [Compound C20, 4-CF3 PHL, reference compound]",93%,10.3,–
"O=C1OCC[C@@H]1NS(=O)(=O)Cc1ccc(Br)cc1 [Compound 19, 4-Br BnSHL]",77%,348,fold more potent in RhlR than 13 or 16 ([1]; E. coli RhlR reporter IC50): approximately 3 fold
O=C1OCC[C@@H]1NS(=O)(=O)c1ccc(F)cc1 [Compound 91],97%,301,–
O=C1OCC[C@@H]1NS(=O)(=O)c1ccc(I)cc1 [Compound 36],99%,295,–
"O=C1OCC[C@@H]1NS(=O)(=O)Cc1cccc(Cl)c1 [Compound 33, 3-Cl BnSHL]",99%,125,potency gain ([1]; E. coli RhlR reporter IC50): ≤ 40 fold; effect on bacterial growth [2]: modest effect on bacterial growth
